Laboratory results: patent US20200289482A1, “CYSTIC FIBROSIS TRANSMEMBRANE CONDUCTANCE REGULATOR MODULATORS FOR TREATING AUTOSOMAL DOMINANT POLYCYSTIC KIDNEY DISEASE” (The Johns Hopkins University, priority 2017, published 2020)

System: Hsp90
Assay: Cycloheximide chase, disappearance of Hsp90 in PN cells
Type: cell-based, mouse
Conditions: VX-809 10 μM with cycloheximide 25 μM
Method: FIG. 9A, FIG. 9B, FIG. 9C, FIG. 9D, FIG. 9E, FIG. 9F, FIG. 9G, and FIG. 9H show Hsp27, HSp70, and Hsp90 expression in PN cells treated with VX-809 and/or cycloheximide. (A) Pkd1 null (PN) cells were treated with VX-809 (10 μM) and/or with cycloheximide (25 μM) for indicated time points before being harvested for the assay. (FIG. 9A) Western blot showing expression of Hsp27, Hsp70, and Hsp90 in VX-809-(16 h), cycloheximide-treated, or control PN cells. ((FIG. 9B. (FIG. 9C, and (FIG. 9D) Columns represent averages±standard errors of Hsp27, Hsp70, and Hsp90 expression in cells treated with VX-809 and/or cycloheximide. ((FIG. 9E) Western blot showing expression of Hsp27, Hsp70, and Hsp90 in PN cells treated with VX-809+cycloheximide or control PN cells. ((FIG. 9F, (FIG. 9G, and (FIG. 9H) Columns represent averages±standard errors of Hsp27, Hsp70, and Hsp90 expression in cells treated only with cycloheximide or in control PN cells. Data were analyzed by non-parametric t-test. The experiments were repeated 3-5 times. *P<0.05, **P<0.01;
To gain more insight into the mechanism whereby VX-809 alters Hsp protein levels, translation was inhibited by using cycloheximide (35) and the disappearance of the three Hsps was monitored. […] Hsp 90 was reduced by approximately 25%, and Hsp27 was unchanged.

lumacaftor [VX-809] was tested, and the “Hsp 90 reduction over the 8-h period” value was “approximately 25%”.
